The record followed here is ChEMBL document CHEMBL1201862, “PubChem BioAssay data set” (2004).

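How tested: cells in 96-well plates exposed to compound for 48 hours at five concentrations. Here, GI50 denotes the concentration required for 50% inhibition of growth.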 Active and inactive are the calls of the source. No stated cut-off is given here; in the data, active = GI50 up to about 1.1 µM and inactive = higher.

Assay in all cases: NCI tumour cell line growth inhibition, 48 h
The test system of experiment [1] is UACC-257.
In experiment [2] the test system is TK-10.
Experiment [3] relates to Malme-3M.
The test system of experiment [4] is NCI-H460.
Experiment [5] has as its system SK-MEL-2.
Experiment [6] has as its system M14.
Experiment [7] deals with SK-OV-3.
Experiment [8] relates to SNB-75.
Experiment [9] has as its system A549.
In experiment [10] the test system is K562.
Experiment [11] deals with UO-31.
Experiment [12] concerns SF-268.
Experiment [13] concerns SF-539.
Experiment [14] deals with KM12.
The subject of experiment [15] is U-251.
In experiment [16] the test system is A498.

Consider `C=CCC(OCCOCC)c1cc(OCCOCC)ccc1OC` (centres undefined), for which the GI50 in experiment [1], in experiment [2], in experiment [3], in experiment [4], in [5] and in experiment [6] was > 100 µM (inactive) in each case. The GI50 in experiment [7], in experiment [8], in experiment [9], in experiment [10], in experiment [11] and in experiment [12] was > 100 µM (inactive) each time. Moreover, the GI50 in experiment [13], in experiment [14] and in experiment [15] was > 100 µM (inactive) in each case.
With `O=c1[nH]c(=O)n(C2CC(O)C(CO)O2)cc1C#Cc1cc(F)cc(F)c1` (centres undefined), the GI50 in experiment [1], in experiment [3], in experiment [4], in [5], in experiment [6] and in [7] was > 100 µM (inactive) each time. Besides, the GI50 in [8] is 48.9 µM (inactive); in experiment [9], > 100 µM (inactive); in experiment [10], > 100 µM (inactive); in experiment [11] it was > 100 µM (inactive); in experiment [12], > 100 µM (inactive); in [13], > 100 µM (inactive). Besides, the GI50 in [14] and in experiment [15] was > 100 µM (inactive) throughout.
Consider `Brc1ccc(C2SCc3nc4ccccc4n32)cc1` (centres undefined), for which the GI50 is 13.8 µM (inactive) in experiment [2]; 12.9 µM (inactive) in [3]; 12.9 µM (inactive) in experiment [4]; 14.1 µM (inactive) in experiment [5]; 12.4 µM (inactive) in experiment [6]; 16.7 µM (inactive) in [7]. Moreover, the GI50 in experiment [8] was < 0.01 µM (active); in experiment [9], 19 µM (inactive); in [10] it was 3.65 µM (inactive); in [11], 11 µM (inactive); in experiment [12], 13.6 µM (inactive); in experiment [13] it was 18.5 µM (inactive). The GI50 in experiment [14] was 5.98 µM (inactive); in [15], 12 µM (inactive).
Turning to `[O-][S+]1Cc2ccccc2CS1` (centres undefined), the GI50 in experiment [1] was 14.7 µM (inactive); in experiment [2], 21.8 µM (inactive); in [3] it was 13.6 µM (inactive); in experiment [4] it was 22.7 µM (inactive); in [6], 15 µM (inactive); in experiment [7], 52.8 µM (inactive). The GI50 was 20.3 µM (inactive) in experiment [8]; 93.8 µM (inactive) in [9]; 17.9 µM (inactive) in experiment [10]; 21.4 µM (inactive) in experiment [11]; 22.9 µM (inactive) in experiment [12]; 11.4 µM (inactive) in [13]. The GI50 in experiment [14] was 35.1 µM (inactive); in experiment [15], 10.7 µM (inactive); in experiment [16] it was 76.6 µM (inactive).
For `COC(=O)[C@@]1(C)C(=O)CC[C@@H]1C=O`, the GI50 in experiment [1], in experiment [2], in [3], in experiment [4], in [5] and in [6] was > 100 µM (inactive) each time. Further, the GI50 in experiment [7], in experiment [9], in [10], in experiment [11], in experiment [12] and in experiment [13] was > 100 µM (inactive) each time. Moreover, the GI50 in experiment [14], in experiment [15] and in experiment [16] was > 100 µM (inactive) in each case.
As for `COC(=O)c1nc(C(=O)OC)c2c([nH]c3ccccc32)c1C(=O)OC`, the GI50 in [1] is > 100 µM (inactive); in experiment [2] it was > 100 µM (inactive); in experiment [3], > 100 µM (inactive); in [4], 46.1 µM (inactive); in experiment [5], > 100 µM (inactive); in experiment [6], > 100 µM (inactive). Besides, the GI50 is 41.5 µM (inactive) in experiment [8]; > 100 µM (inactive) in experiment [9]; 21.3 µM (inactive) in experiment [11]; > 100 µM (inactive) in experiment [13]; > 100 µM (inactive) in experiment [14]; 99.8 µM (inactive) in experiment [15]. Further, the GI50 in experiment [16] is > 100 µM (inactive).
`COc1ccc(/C=C2\CCC(CCN(C)C)(C3=CCCC3)C2=O)cc1Br` (centres undefined): the GI50 in [1] is 2.43 µM (inactive); in experiment [2], 6.93 µM (inactive); in experiment [3], 13.8 µM (inactive); in experiment [4], 10.1 µM (inactive); in experiment [5] it was 10 µM (inactive); in [6], 1.79 µM (inactive). For the same compound, the GI50 in experiment [8] was 4.49 µM (inactive); in [9], 8.32 µM (inactive); in [10], 2.58 µM (inactive); in experiment [11], 5.35 µM (inactive); in [12], 7.03 µM (inactive); in [13], 12.1 µM (inactive). Besides, the results for the GI50 in [14], in [15] and in experiment [16] were 3.73 µM (inactive), 5.82 µM (inactive) and 8.95 µM (inactive), respectively.
In the case of `CCCC(Sc1ccccc1)P(=O)(c1ccccc1)c1ccccc1` (centres undefined), the GI50 in [1] is 35.1 µM (inactive); in experiment [2], 40 µM (inactive); in experiment [4], 29.8 µM (inactive); in experiment [6], 35.2 µM (inactive); in experiment [7] it was 22.7 µM (inactive); in experiment [8] it was 28.6 µM (inactive). Also, the GI50 in experiment [9] was 28.8 µM (inactive); in experiment [10], 29.9 µM (inactive); in experiment [11], > 100 µM (inactive); in experiment [12], 32.5 µM (inactive); in experiment [13] it was 35.1 µM (inactive); in experiment [14], 38.7 µM (inactive). In addition, the GI50 in [15] is 23.5 µM (inactive); in experiment [16] it was 28.3 µM (inactive).
As for `CCN(CC)CC(=O)/C=C/c1ccc(C)cc1`, the GI50 is 21.6 µM (inactive) in experiment [1]; 28.3 µM (inactive) in experiment [2]; 19.5 µM (inactive) in [3]; 20.6 µM (inactive) in experiment [4]; 17.4 µM (inactive) in experiment [6]; 29.2 µM (inactive) in [7]. Also, the GI50 is 24.3 µM (inactive) in experiment [8]; 27 µM (inactive) in experiment [9]; 35.6 µM (inactive) in experiment [10]; 20.1 µM (inactive) in [11]; 27.9 µM (inactive) in experiment [12]; 20.7 µM (inactive) in experiment [13]. Further, the figures for the GI50 in experiment [14], in experiment [15] and in [16] were 17.5 µM (inactive), 16.5 µM (inactive) and 56 µM (inactive), respectively.
Regarding `CS(=O)(=O)c1c(N)c2nc(Cl)cn2c2nc3ccccc3nc12`, the GI50 in [1], in experiment [3], in [4], in experiment [5], in [6] and in experiment [7] was > 100 µM (inactive) throughout. For the same compound, the GI50 in experiment [8] is 81.3 µM (inactive); in experiment [9] it was > 100 µM (inactive); in [10], > 100 µM (inactive); in experiment [11], > 100 µM (inactive); in experiment [12], > 100 µM (inactive); in experiment [13], > 100 µM (inactive). For the same compound, the GI50 in [14] and in [15] was > 100 µM (inactive) each time.
